For series [1] the following is noted: [M+H]+; instrument: TW; Major Mix IMS/Tof Calibration Kit (Waters).
For series [2] the following is noted: instrument: DT, single field, calibrated with Agilent tune mix (Agilent).
The conditions of series [3]: instrument: DT, stepped-field.

Consider `COc1cc(CCN)c(OC)cc1Br` [2C-B], for which, in series [1], the “collision cross section (N2)” value is recorded as 155.6 Å².

In the case of `COc1cc(CCNCc2ccccc2OC)c(OC)cc1Cl` [25C-NBOMe], in series [1], the “collision cross section (N2)” value amounted to 177.6 Å².

On to `CCCC(=O)Nc1ccc(OCC(O)CNC(C)C)c(C(C)=O)c1` (configuration not stated) [Acebutolol], for which the “collision cross section (N2)” value in series [1] is 190.2 Å².

`CC(=O)c1ccc2c(c1)N(CCCN(C)C)c1ccccc1S2` [Acepromazine]: in series [1], the “collision cross section (N2)” value came out at 176.6 Å².

Turning to `Cc1nnc2n1-c1ccc(Cl)cc1C(c1ccccc1)=NC2` [Alprazolam], the “collision cross section (N2)” value in series [1] stood at 171.5 Å².

As for `CCN(CC)C(C)C(=O)c1ccccc1` (configuration not stated) [Amfepramone], the “collision cross section (N2)” value in series [1] worked out at 148 Å².

As to `CCN1CCCC1CNC(=O)c1cc(S(=O)(=O)CC)c(N)cc1OC` (configuration not stated) [Amisulpride], in series [1], the “collision cross section (N2)” value amounted to 193.1 Å².

As to `CC(C)NCC(O)COc1ccc(CC(N)=O)cc1` (configuration not stated) [Atenolol], the “collision cross section (N2)” value in series [1] is 159.5 Å².

On to `CN1[C@@H]2CC[C@H]1C[C@@H](OC(=O)C(CO)c1ccccc1)C2` (some centres not stated) [Atropine], for which, in series [1], the “collision cross section (N2)” value turned out to be 171.5 Å².

For the molecule `CCOC(=O)c1ccc(N)cc1` [Benzocaine], the “collision cross section (N2)” value in series [1] worked out at 148.2 Å².

In the case of `CN1[C@H]2CC[C@@H]1[C@@H](C(=O)O)[C@@H](OC(=O)c1ccccc1)C2` [Benzoylecgonine], in series [1], the “collision cross section (N2)” value amounted to 167.3 Å².

For the molecule `CCCCN1CCCCC1C(=O)Nc1c(C)cccc1C` (configuration not stated) [Bupivacaine], in series [1], the “collision cross section (N2)” value was determined as 173.1 Å².

On to `CC(NC(C)(C)C)C(=O)c1cccc(Cl)c1` (configuration not stated) [Bupropion], for which, in series [1], the “collision cross section (N2)” value is listed as 157.8 Å².

On to `O=C1CC2(CCCC2)CC(=O)N1CCCCN1CCN(c2ncccn2)CC1` [Buspirone], for which the “collision cross section (N2)” value in series [1] was 199.3 Å².

With `Cn1c(=O)c2c(ncn2C)n(C)c1=O` [Caffeine], in series [1], the “collision cross section (N2)” value is recorded as 138.3 Å².

For the molecule `C[C@H](CS)C(=O)N1CCC[C@H]1C(=O)O` [Captopril], the “collision cross section (N2)” value in series [1] came out at 142.5 Å².

For the molecule `NC(=O)N1c2ccccc2C=Cc2ccccc21` [Carbamazepine], the “collision cross section (N2)” value in series [1] came to 150.3 Å².

Take `COc1ccccc1OCCNCC(O)COc1cccc2[nH]c3ccccc3c12` (configuration not stated) [Carvedilol]: in series [1], the “collision cross section (N2)” value is reported as 190 Å².

Regarding `Cc1ccc(-c2cc(C(F)(F)F)nn2-c2ccc(S(N)(=O)=O)cc2)cc1` [Celecoxib], the “collision cross section (N2)” value in series [1] is recorded as 186.4 Å².

`OCCN1CCN(C(c2ccccc2)c2ccc(Cl)cc2)CC1` (configuration not stated) [Cetirizine-M O-desalkyl]: in series [1], the “collision cross section (N2)” value was determined as 186.2 Å².

`CNC1=Nc2ccc(Cl)cc2C(c2ccccc2)=[N+]([O-])C1` [Chlordiazepoxide]: the “collision cross section (N2)” value in series [1] turned out to be 170.4 Å².

On to `CN(C)CCC(c1ccc(Cl)cc1)c1ccccn1` (configuration not stated) [Chlorphenamine], for which the “collision cross section (N2)” value in series [1] amounted to 164.5 Å².

With `CNCCCN1c2ccccc2Sc2ccc(Cl)cc21` [Chlorpromazine-M norl], in series [1], the “collision cross section (N2)” value was found to be 168.7 Å².

`CNCC/C=C1/c2ccccc2Sc2ccc(Cl)cc21` [Chlorprothixene-M N-desmethyl]: the “collision cross section (N2)” value in series [1] was found to be 165.9 Å².

Consider `CN/C(=N\C#N)NCCSCc1nc[nH]c1C` [Cimetidine], for which the “collision cross section (N2)” value in series [1] is on record as 156.5 Å².

Regarding `CN(C)CCCC1(c2ccc(F)cc2)OCc2cc(C#N)ccc21` (configuration not stated) [Citalopram], the “collision cross section (N2)” value in series [1] came out at 180.1 Å².

As for `CC(C)(C)NCC(O)c1cc(Cl)c(N)c(Cl)c1` (configuration not stated) [Clenbuterol], the “collision cross section (N2)” value in series [1] is listed as 165.6 Å².

As to `O=C1CN=C(c2ccccc2Cl)c2cc([N+](=O)[O-])ccc2N1` [Clonazepam], the “collision cross section (N2)” value in series [1] is given as 168.2 Å².

Consider `CN1CCN(C2=Nc3cc(Cl)ccc3Nc3ccccc32)CC1` [Clozapine], for which the “collision cross section (N2)” value in series [1] is listed as 178.8 Å².

As to `CCOC(=O)[C@H]1[C@@H](OC(=O)c2ccccc2)C[C@@H]2CC[C@H]1N2C` [Cocaine-M Cocaethylene], the “collision cross section (N2)” value in series [1] was determined as 173.5 Å².

For `CN1CCN(C(c2ccccc2)c2ccccc2)CC1` [Cyclizine], the “collision cross section (N2)” value in series [1] is 166.7 Å².

Turning to `CN(C)CCC=C1c2ccccc2C=Cc2ccccc21` [Cyclobenzaprine], the “collision cross section (N2)” value in series [1] is recorded as 164.7 Å².

With `COc1ccc2c(c1)[C@]13CCCC[C@@H]1[C@H](C2)N(C)CC3` [Dextromethorphan], in series [1], the “collision cross section (N2)” value was 166.3 Å².

On to `CCC(=O)O[C@](Cc1ccccc1)(c1ccccc1)[C@H](C)CN(C)C` [Dextropropoxyphene], for which the “collision cross section (N2)” value in series [1] is on record as 180.7 Å².

As for `O=C(O)Cc1ccccc1Nc1c(Cl)cccc1Cl` [Diclofenac], in series [1], the “collision cross section (N2)” value is 157.7 Å².

As to `CN1CC[C@]23c4c5ccc(O)c4O[C@H]2[C@@H](O)CC[C@H]3[C@H]1C5` [Dihydromorphine], the “collision cross section (N2)” value in series [1] is 163.6 Å².

Regarding `COc1ccc([C@@H]2Sc3ccccc3N(CCN(C)C)C(=O)[C@@H]2O)cc1` [Diltiazem-M deacetyl], the “collision cross section (N2)” value in series [1] came to 186.3 Å².

As for `CNC(=O)CSP(=S)(OC)OC` [Dimethoate], in series [1], the “collision cross section (N2)” value came to 139.9 Å².

Consider `OCCN(CCO)c1nc(N2CCCCC2)c2nc(N(CCO)CCO)nc(N3CCCCC3)c2n1` [Dipyridamole], for which, in series [1], the “collision cross section (N2)” value came to 227.5 Å².

Regarding `CC(CN1CCN(CCOCCO)CC1)CN1c2ccccc2Sc2ccccc21` (configuration not stated) [Dixyrazine], the “collision cross section (N2)” value in series [1] came to 201 Å².

Take `COc1cc2c(cc1OC)C(=O)C(CC1CCN(Cc3ccccc3)CC1)C2` (configuration not stated) [Donepezil]: the “collision cross section (N2)” value in series [1] was 198.1 Å².

Turning to `CN(C)CCC=C1c2ccccc2CSc2ccccc21` [Dosulepin], in series [1], the “collision cross section (N2)” value amounted to 167.3 Å².

`COc1cc2nc(N3CCN(C(=O)C4COc5ccccc5O4)CC3)nc(N)c2cc1OC` (configuration not stated) [Doxazosin]: in series [1], the “collision cross section (N2)” value is 202.9 Å².

Regarding `CN(C)CCOC(C)(c1ccccc1)c1ccccn1` (configuration not stated) [Doxylamine], the “collision cross section (N2)” value in series [1] is 161.9 Å².

`COC(=O)[C@@H]1CC2=CC(=O)CC[C@]2(C)[C@@]23O[C@@H]2C[C@@]2(C)[C@@H](CC[C@@]24CCC(=O)O4)[C@H]13` [Eplerenone]: in series [1], the “collision cross section (N2)” value is 197.6 Å².

Turning to `CCNC(C)C(=O)c1ccccc1` (configuration not stated) [Ethcathinone], the “collision cross section (N2)” value in series [1] came to 139.2 Å².

On to `Fc1ccc(C(c2ccc(F)cc2)N2CCN(C/C=C/c3ccccc3)CC2)cc1` [Flunarizine], for which the “collision cross section (N2)” value in series [1] came out at 211.5 Å².

For `CN1C(=O)CN=C(c2ccccc2F)c2cc(N)ccc21` [Flunitrazepam-M 7-amino], the “collision cross section (N2)” value in series [1] is reported as 163.1 Å².

With `CCCCCCCCCCCCCCCCCCCC(=O)OC[C@@H](O)COP(=O)([O-])OCC[N+](C)(C)C` [LPC(20:0)], the “collision cross section (N2)” value in series [2] ([M+H]+) was 243.9 Å²; in series [3] ([M+H]+), 248.6 Å²; in series [3] ([M+Na]+) it was 251.13 Å².

Consider `CC/C=C\C/C=C\C/C=C\C/C=C\C/C=C\CCCCCC(=O)OC[C@@H](COC(=O)CCCC/C=C\C/C=C\C/C=C\C/C=C\CC)OC(=O)CCCCC/C=C\C/C=C\C/C=C\C/C=C\C/C=C\CC` [TG(62:14)], for which the “collision cross section (N2)” value in series [2] ([M+NH4]+) was 332.7 Å².

Values taken from the C3SDB collision cross section collection.
